From PubChem BioAssay (NCI) come the findings set out here.

“And” between values parts separate entries of the source, which are not always exact repeats. Equal entries are not always repeated.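 Compound exposure: 48 hours, 5 concentrations, 96-well plates. The concentration for 50% growth inhibition is given as GI50. At the TGI there is no net growth.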 Where a SMILES comes first, the peptide text is derived from it. [ ]: non-standard residue; d: D form. Phe(F5) = N[CH](Cc1c(F)c(F)c(F)c(F)c1F)C(=O)O A value given as a limit tells only on which side of the number the result lay.

Some test systems named below: NCI/ADR-RES ovarian; OVCAR-4 ovarian; UO-31 renal; MOLT-4 leukemia; RXF 393 renal; LOX IMVI melanoma; U251 CNS; IGROV1 ovarian; CCRF-CEM leukemia; SF-268 CNS.
Holding throughout (assay): NCI-60 cell line screen, 48 h

Take `O=C(Nc1cccc(Cl)c1)Nc1ncc(CCNc2ncnc3ccsc23)s1`: the GI50 in the experiment on NCI/ADR-RES ovarian was 1.34 µM and 1.6 µM; in the experiment with OVCAR-4 ovarian, 2.1 µM and 2.93 µM; with UO-31 renal, 6.01 µM and 3.22 µM; with MOLT-4 leukemia it was 2.85 µM and 1.73 µM; with RXF 393 renal it was 1.93 µM and 2.16 µM; in the experiment on LOX IMVI melanoma it was 1.38 µM and 1.2 µM. The GI50 in the experiment with U251 CNS was 4.68 µM and 2.16 µM; in the experiment on IGROV1 ovarian it was 7.43 µM and 3.6 µM; in the experiment with CCRF-CEM leukemia it was < 0.01 µM and 0.00391 µM; in the experiment on SF-268 CNS it was 5.85 µM and 2.75 µM. Also, the TGI was 11.8 µM and > 10 µM in the experiment on NCI/ADR-RES ovarian; 11.9 µM and > 10 µM in the experiment on OVCAR-4 ovarian; 28.7 µM and > 10 µM in the experiment with UO-31 renal; > 27.8 µM and 4.99 µM in the experiment with MOLT-4 leukemia; 10.1 µM and > 10 µM in the experiment with RXF 393 renal; > 43.9 µM in the experiment on LOX IMVI melanoma. Also, the TGI in the experiment on U251 CNS is > 45.7 µM; in the experiment with IGROV1 ovarian it was 44.1 µM and > 10 µM; in the experiment on CCRF-CEM leukemia, > 100 µM; with SF-268 CNS, 29.6 µM and > 10 µM.

Regarding `CC(=O)OC1c2ccccc2CC2(OC(C)=O)c3ccccc3C12` (stereo not given), the TGI with NCI/ADR-RES ovarian, in the experiment with OVCAR-4 ovarian, in the experiment with UO-31 renal, in the experiment on MOLT-4 leukemia, with RXF 393 renal and in the experiment on LOX IMVI melanoma was > 100 µM in each case. Further, the TGI in the experiment with U251 CNS, in the experiment on IGROV1 ovarian, in the experiment with CCRF-CEM leukemia and in the experiment with SF-268 CNS was > 100 µM each time.

In the case of `CC12CCC(=O)C(O1)C1C(=O)c3cc4ccccc4cc3C(=O)C12` (stereo not given), the GI50 is 21.3 µM in the experiment with NCI/ADR-RES ovarian; 12.2 µM in the experiment with OVCAR-4 ovarian; 42.5 µM with UO-31 renal; 10.4 µM in the experiment on MOLT-4 leukemia; 2.5 µM with RXF 393 renal; 19 µM in the experiment on U251 CNS. In addition, the GI50 in the experiment on IGROV1 ovarian is 23.9 µM; in the experiment on CCRF-CEM leukemia it was 11.4 µM; in the experiment on SF-268 CNS it was 16.1 µM. In addition, the TGI in the experiment with NCI/ADR-RES ovarian is 57.2 µM; with OVCAR-4 ovarian, 41.2 µM; with UO-31 renal, > 100 µM; with MOLT-4 leukemia, 74.1 µM; in the experiment on RXF 393 renal, 14.6 µM; in the experiment on U251 CNS it was 43.7 µM. The TGI is > 100 µM in the experiment on IGROV1 ovarian, 31 µM in the experiment on CCRF-CEM leukemia and 53 µM in the experiment with SF-268 CNS.

Regarding `COC(=O)C(CC(C)C)NC(=O)C(Cc1cnc[nH]1)NC(=O)CNC(=O)C(NC(=O)C(C)NC(=O)C(Cc1c[nH]c2ccccc12)NC(=O)C(CCC(=O)O)NC(=O)C(N)Cc1c(F)c(F)c(F)c(F)c1F)C(C)C` (stereo not given) (H-[Phe(F5)]EWAVGHL-OMe; configuration not given here), the TGI with NCI/ADR-RES ovarian was > 12.5 µM; in the experiment with OVCAR-4 ovarian it was > 100 µM; in the experiment with UO-31 renal it was > 12.5 µM and 56 µM; in the experiment on MOLT-4 leukemia, > 100 µM; with RXF 393 renal, > 100 µM; in the experiment on LOX IMVI melanoma it was > 12.5 µM. Besides, the TGI with U251 CNS is > 100 µM; in the experiment with IGROV1 ovarian, > 100 µM; with CCRF-CEM leukemia it was > 100 µM; in the experiment on SF-268 CNS, > 12.5 µM. The GI50 with OVCAR-4 ovarian is > 100 µM; in the experiment on UO-31 renal, 0.991 µM; in the experiment on MOLT-4 leukemia it was > 100 µM; in the experiment with RXF 393 renal, > 100 µM; in the experiment on U251 CNS, > 100 µM; with IGROV1 ovarian, > 100 µM. Moreover, the GI50 with CCRF-CEM leukemia is > 100 µM.

On to `CCc1ccc(NC(=O)Nc2c[nH]c3ccccc23)cc1`, for which the GI50 with NCI/ADR-RES ovarian is 14.2 µM; in the experiment on OVCAR-4 ovarian it was 10.1 µM; in the experiment on UO-31 renal, 1.62 µM; with MOLT-4 leukemia, 1.85 µM; in the experiment with RXF 393 renal, 11.6 µM; with LOX IMVI melanoma it was 25.8 µM. For the same compound, the GI50 is 31.5 µM in the experiment with U251 CNS, 5.72 µM with IGROV1 ovarian, 0.358 µM in the experiment with CCRF-CEM leukemia and 4.24 µM in the experiment on SF-268 CNS. Also, the TGI was > 62.8 µM in the experiment with NCI/ADR-RES ovarian; > 54.7 µM with OVCAR-4 ovarian; > 58 µM with UO-31 renal; > 100 µM in the experiment with MOLT-4 leukemia; > 59.4 µM in the experiment on RXF 393 renal; > 50.2 µM in the experiment with LOX IMVI melanoma. Also, the TGI with U251 CNS was > 51.7 µM; in the experiment with IGROV1 ovarian, > 45.5 µM; in the experiment with CCRF-CEM leukemia it was > 100 µM; with SF-268 CNS, > 43.4 µM.

As to `COc1cc2nc(Cl)nc(Nc3cccc(C(=O)/C=C/c4ccccc4)c3)c2cc1OC`, the GI50 with NCI/ADR-RES ovarian was 4.26 µM; in the experiment on OVCAR-4 ovarian, 5.5 µM; in the experiment on UO-31 renal it was 17.8 µM; with MOLT-4 leukemia, 2.77 µM; with RXF 393 renal it was 2.02 µM; with U251 CNS it was 2.97 µM. For the same compound, the GI50 in the experiment with IGROV1 ovarian is 4.45 µM; in the experiment on CCRF-CEM leukemia, 2.45 µM; with SF-268 CNS, 4.99 µM. Besides, the TGI in the experiment on NCI/ADR-RES ovarian was > 100 µM; with OVCAR-4 ovarian, 33.3 µM; in the experiment with UO-31 renal, > 100 µM; with MOLT-4 leukemia it was > 100 µM; in the experiment with RXF 393 renal, 5.46 µM; with U251 CNS it was > 38.1 µM. Besides, the TGI was 42.9 µM in the experiment with IGROV1 ovarian, > 100 µM with CCRF-CEM leukemia and 81.4 µM in the experiment on SF-268 CNS.

In the case of `CC1Oc2cc3c(-c4c(O)cc(O)c5c(O)c6c(cc45)OC(C)C(C)C6=O)c(O)cc(O)c3c(O)c2C(=O)C1C` (stereo not given), the TGI in the experiment on NCI/ADR-RES ovarian worked out at 1.39 µM; with OVCAR-4 ovarian, 4.98 µM; in the experiment with UO-31 renal it was 1.54 µM; with MOLT-4 leukemia it was 0.731 µM; with RXF 393 renal, 0.207 µM; with U251 CNS, 0.404 µM. Further, the TGI is 1.3 µM with IGROV1 ovarian, 0.148 µM in the experiment with CCRF-CEM leukemia and 2.46 µM with SF-268 CNS.

In the case of `CN(C)CCNC(=O)c1cccn2c(=O)c3cc4ccccc4cc3nc12`, the GI50 in the experiment on NCI/ADR-RES ovarian was 0.101 µM; in the experiment on OVCAR-4 ovarian, 0.323 µM; with MOLT-4 leukemia, 0.0571 µM; with RXF 393 renal, 0.0981 µM; in the experiment on LOX IMVI melanoma, 0.0624 µM; in the experiment on U251 CNS, 0.114 µM. For the same compound, the GI50 with IGROV1 ovarian was 0.0396 µM; in the experiment with CCRF-CEM leukemia it was 0.1 µM; in the experiment on SF-268 CNS, 0.126 µM. Moreover, the TGI in the experiment on NCI/ADR-RES ovarian is 0.468 µM; in the experiment with OVCAR-4 ovarian, 7.67 µM; in the experiment on MOLT-4 leukemia, 8.23 µM; in the experiment with RXF 393 renal, 0.286 µM; in the experiment on LOX IMVI melanoma, 0.286 µM; in the experiment with U251 CNS, 18 µM. Moreover, the TGI with IGROV1 ovarian came out at 2.17 µM; in the experiment on CCRF-CEM leukemia it was 32.6 µM; with SF-268 CNS it was 3.38 µM.
